# Target: T1, BRD9 (Homo sapiens, UniProt Q9H8M2)
# T1 sequence (Q9H8M2 1-597): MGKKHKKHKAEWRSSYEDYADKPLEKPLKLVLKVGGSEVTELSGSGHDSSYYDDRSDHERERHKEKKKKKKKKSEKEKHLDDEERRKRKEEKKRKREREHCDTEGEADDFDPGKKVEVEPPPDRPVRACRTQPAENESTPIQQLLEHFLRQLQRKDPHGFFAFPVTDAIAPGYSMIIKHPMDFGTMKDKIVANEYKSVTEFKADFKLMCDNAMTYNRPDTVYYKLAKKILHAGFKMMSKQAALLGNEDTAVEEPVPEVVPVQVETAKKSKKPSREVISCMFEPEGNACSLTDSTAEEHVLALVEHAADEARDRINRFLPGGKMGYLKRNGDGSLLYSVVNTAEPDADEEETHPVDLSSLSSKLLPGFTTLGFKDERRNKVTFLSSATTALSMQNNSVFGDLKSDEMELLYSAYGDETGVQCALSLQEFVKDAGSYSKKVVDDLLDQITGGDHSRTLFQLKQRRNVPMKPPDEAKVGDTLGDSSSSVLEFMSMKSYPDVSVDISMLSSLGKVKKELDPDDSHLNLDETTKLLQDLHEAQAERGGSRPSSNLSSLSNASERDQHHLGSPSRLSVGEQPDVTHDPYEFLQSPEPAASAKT
# Assay: HiBiT BRD9 degradation assay in 293T.166 (BRD9-HiBiT) cells
# Assay type: cell-based
# Set-up: endogenously expressing BRD9 with HiBiT fusion tag via CRISPR; host or cells: 293T.166 (BRD9-HiBiT), also expressing LgBiT ectopically
# Settings: Table 1; 293T.166 cells, 2.0 hours; class symbols; read-out: HiBiT-Degradation 293T.166 BRD9 2.0 hours (DC50)
# Description: Selected compounds were tested in a BRD9 degradation assay using the HiBit Method.
# Dulbecco's modified Eagle medium (DMEM) without phenol red and fetal bovine serum (FBS) were purchased from Gibco (Grand Island, N.Y., USA). Nano-Glo® HiBiT Lytic Assay System was purchased from Promega (Madison, Wis., USA). 293T.166 (BRD9-HiBiT) cell line, endogenously expressing BRD9 with HiBiT fusion tag via CRISPR and ectopically expressing LgBiT tag, was purchased from Promega (Madison, Wis., USA). 293T.167 (BRD7-HiBiT) cell line, endogenously expressing BRD7 with HiBiT fusion tag via CRISPR and ectopically expressing LgBiT tag, was purchased from Promega (Madison, Wis., USA). 293T.92 (BRD4-HiBiT) cell line, endogenously expressing BRD4 with HiBiT fusion tag via CRISPR and ectopically expressing LgBiT tag, was generated in-house. Cell culture flasks and 384-well microplates were acquired from VWR (Radnor, Pa., USA).
# BRD9 degradation was determined based on quantification of luminescent signal using Nano-Glo® HiBiT Lytic Assay kit. Test compounds were added to the 384-well plate from a top concentration of 10 μM with 11 points, half log titration in duplicates. 293T.166 cells were added into 384-well plates at a cell density of 10,000 cells per well. The plates were kept at 37° C. with 5% CO2 for 2 hours. BRD7 and BRD4 degradation was similarly determined with 293T.167 cells and 293T.92 cells, respectively. The cells treated in the absence of the test compound were the negative control and the cells without Nano-Glo® HiBiT Lytic reagent were the positive control. After 2-hour incubation, Nano-Glo® HiBiT Lytic Assay reagents were added to the cells. Luminescence was acquired on EnVision™ Multilabel Reader (PerkinElmer, Santa Clara, Calif., USA).
row,DC50 [nM],Compound
1,100 to 500,"COc1cc(-c2cn(C)c(=O)c3[nH]ncc23)cc(OC)c1CN1CC[C@@H](NC(=O)CN2CCC(c3ccc(NC4CCC(=O)NC4=O)cc3)CC2)C1 (stereo in doubt) [Compound 69, N-[1-[[2,6-dimethoxy-4-(6-methyl-7-oxo-1H-pyrazolo[3,4-c]pyridin-4-yl)phenyl]methyl]pyrrolidin-3-yl]-2-[4-[4-[(2,6-dioxo-3-piperidyl)amino]phenyl]-1-piperidyl]acetamide]"
2,< 100,"COc1cc(-c2cn(C)c(=O)c3[nH]ncc23)cc(OC)c1CN1CCN(C(=O)CN2CCC(c3ccc(NC4CCC(=O)NC4=O)cc3)CC2)CC1 (centres unmarked) [Compound 1, 3-[4-[1-[2-[4-[[2,6-dimethoxy-4-(6-methyl-7-oxo-1H-pyrazolo[3,4-c]pyridin-4-yl)phenyl]methyl]piperazin-1-yl]-2-oxo-ethyl]-4-piperidyl]anilino]piperidine-2,6-dione]"
3,< 100,COc1cc(-c2cn(C)c(=O)c3[nH]ncc23)cc(OC)c1CN1CCC2(CC1)CN(C(=O)CN1CCC(c3ccc(NC4CCC(=O)NC4=O)cc3)CC1)C2 (centres unmarked) [Compound 4]
4,< 100,COc1cc(-c2cn(C)c(=O)c3[nH]ncc23)cc(OC)c1CN1CC(NC(=O)CN2CCC(c3ccc(NC4CCC(=O)NC4=O)cc3)CC2)C1 (centres unmarked) [Compound 5]
5,< 100,COc1cc(-c2cn(C)c(=O)c3[nH]ncc23)cc(OC)c1CN1CCC(NC(=O)CN2CCC(c3ccc(NC4CCC(=O)NC4=O)cc3)CC2)CC1 (centres unmarked) [Compound 6]
6,< 100,COc1cc(-c2cn(C)c(=O)c3[nH]ncc23)cc(OC)c1CN1CCN(C(=O)CN2CCC(c3ccc(NC4CCC(=O)NC4=O)cc3F)CC2)CC1 (centres unmarked) [Compound 7]
7,< 100,COc1cc(-c2cn(C)c(=O)c3[nH]ncc23)cc(OC)c1CN1CCN(C(=O)CN2CCC(c3ccc(NC4CCC(=O)NC4=O)cc3)C(F)(F)C2)CC1 (centres unmarked) [Compound 8]
8,< 100,COc1cc(-c2cn(C)c(=O)c3[nH]ncc23)cc(F)c1CN1CCN(C(=O)CN2CCC(c3ccc(NC4CCC(=O)NC4=O)cc3)CC2)CC1 (centres unmarked) [Compound 9]
9,< 100,COc1cc(-c2cn(C)c(=O)c3[nH]ncc23)cc(OC)c1CN1CCN(C(=O)CN2CCC(c3ccc(NC4CCC(=O)NC4=O)c(Cl)c3)CC2)CC1 (centres unmarked) [Compound 10]
10,< 100,COc1cc(-c2cn(C)c(=O)c3[nH]ncc23)cc(OC)c1CN1CCN(C(=O)CN2CCC(c3ccc(NC4CCC(=O)NC4=O)cc3C(F)F)CC2)CC1 (centres unmarked) [Compound 11]
11,< 100,COc1cc(-c2cn(C)c(=O)c3[nH]ncc23)cc(Cl)c1CN1CCN(C(=O)CN2CCC(c3ccc(NC4CCC(=O)NC4=O)cc3)CC2)CC1 (centres unmarked) [Compound 12]
12,< 100,COc1cc(-c2cn(C)c(=O)c3[nH]ncc23)cc(OC)c1CN1C[C@@H]2C[C@H]1CN2C(=O)CN1CCC(c2ccc(NC3CCC(=O)NC3=O)cc2)CC1 (some centres unmarked) [Compound 13]
13,< 100,COc1cc(-c2cn(C)c(=O)c3[nH]ncc23)cc(OC)c1CN1C[C@H]2C[C@@H]1CN2C(=O)CN1CCC(c2ccc(NC3CCC(=O)NC3=O)cc2)CC1 (some centres unmarked) [Compound 14]
14,< 100,COc1cc(-c2cn(C)c(=O)c3cnccc23)cc(OC)c1CN1CCN(C(=O)CN2CCC(c3ccc(NC4CCC(=O)NC4=O)cc3)CC2)CC1 (centres unmarked) [Compound 15]
15,< 100,COc1cc(-c2cn(C)c(=O)c3[nH]ncc23)cc(OC)c1CN1CCN(C(=O)CN2CCC(c3ccc(C4CCC(=O)NC4=O)cc3)CC2)CC1 (centres unmarked) [Compound 16]
16,< 100,COc1cc(-c2cn(C)c(=O)c3[nH]ncc23)cc(OC)c1CN1CCN(C(=O)CN2CCC(c3c(F)cc(NC4CCC(=O)NC4=O)cc3F)CC2)CC1 (centres unmarked) [Compound 17]
17,< 100,COc1cc(-c2cn(C)c(=O)c3[nH]ncc23)cc(OC)c1CN1CCN(C(=O)CN2CCC(c3ccc(NC4CCC(=O)NC4=O)cc3C(F)(F)F)CC2)CC1 (centres unmarked) [Compound 18]
18,< 100,COc1cc(-c2cn(C)c(=O)c3[nH]ncc23)c(Cl)cc1CN1CCN(C(=O)CN2CCC(c3ccc(NC4CCC(=O)NC4=O)cc3)CC2)CC1 (centres unmarked) [Compound 19]
19,< 100,Cn1cc(-c2ccc(CN3CCN(C(=O)CN4CCC(c5ccc(NC6CCC(=O)NC6=O)cc5)CC4)CC3)c(OC(F)(F)F)c2)c2cn[nH]c2c1=O (centres unmarked) [Compound 20]

row,DC50 [nM],Compound
1,< 100,COc1cc(-c2cn(C)c(=O)c3[nH]ncc23)cc(OC)c1CN1CCN(C(=O)CN2CCC(c3ccc(OC4CCC(=O)NC4=O)cc3)CC2)CC1 (centres unmarked) [Compound 21]
2,< 100,CCOc1cc(-c2cn(C)c(=O)c3[nH]ncc23)c(OC)cc1CN1CCN(C(=O)CN2CCC(c3ccc(NC4CCC(=O)NC4=O)cc3)CC2)CC1 (centres unmarked) [Compound 22]
3,< 100,COc1cc(-c2cn(C)c(=O)c3[nH]ncc23)cc(F)c1CN1CCN(C(=O)CN2CCC(c3ccc(NC4CCC(=O)NC4=O)cc3C(F)(F)F)CC2)CC1 (centres unmarked) [Compound 23]
4,< 100,COc1cc(-c2cn(C)c(=O)c3[nH]ncc23)cc(F)c1CN1CCN(C(=O)CN2CCC(c3ccc(NC4CCC(=O)NC4=O)cc3Cl)CC2)CC1 (centres unmarked) [Compound 24]
5,< 100,COc1cc(CN2CCN(C(=O)CN3CCC(c4ccc(NC5CCC(=O)NC5=O)cc4)CC3)CC2)c(OCC(F)F)cc1-c1cn(C)c(=O)c2[nH]ncc12 (centres unmarked) [Compound 25]
6,< 100,COc1cc(CN2CCN(C(=O)CN3CCC(c4ccc(NC5CCC(=O)NC5=O)cc4)CC3)CC2)c(OC(C)C)cc1-c1cn(C)c(=O)c2[nH]ncc12 (centres unmarked) [Compound 26]
7,< 100,COc1cc(-c2cn(C)c(=O)c3ccc(F)cc23)cc(OC)c1CN1CCN(C(=O)CN2CCC(c3ccc(NC4CCC(=O)NC4=O)cc3)CC2)CC1 (centres unmarked) [Compound 27]
8,< 100,COc1cc(-c2cn(C)c(=O)c3ccccc23)cc(OC)c1CN1CCN(C(=O)CN2CCC(c3ccc(NC4CCC(=O)NC4=O)cc3)CC2)CC1 (centres unmarked) [Compound 28]
9,< 100,COc1cc(-c2cn(C)c(=O)c3cc(Cl)ccc23)cc(OC)c1CN1CCN(C(=O)CN2CCC(c3ccc(NC4CCC(=O)NC4=O)cc3)CC2)CC1 (centres unmarked) [Compound 29]
10,< 100,COc1cc(-c2cn(C)c(=O)c(C)c2C)cc(OC)c1CN1CCN(C(=O)CN2CCC(c3ccc(NC4CCC(=O)NC4=O)cc3)CC2)CC1 (centres unmarked) [Compound 30]
11,< 100,COc1cc(-c2cc(C)c(=O)n(C)c2)cc(OC)c1CN1CCN(C(=O)CN2CCC(c3ccc(NC4CCC(=O)NC4=O)cc3)CC2)CC1 (centres unmarked) [Compound 31]
12,< 100,COc1cc(-c2cn(C)c(=O)c3[nH]ncc23)cc(OC)c1CN1CCN(C(=O)CN2CC(c3ccc(NC4CCC(=O)NC4=O)cc3)C2)CC1 (centres unmarked) [Compound 32]
13,< 100,COc1cc(-c2cn(C)c(=O)c3[nH]ncc23)cc(F)c1CN1CCN(C(=O)CN2CCC(c3ccc(NC4CCC(=O)NC4=O)cc3)C(F)(F)C2)CC1 (centres unmarked) [Compound 33]
14,< 100,COc1cc(-c2cn(C)c(=O)c3[nH]ncc23)cc(Cl)c1CN1CCN(C(=O)CN2CCC(c3ccc(NC4CCC(=O)NC4=O)cc3)C(F)(F)C2)CC1 (centres unmarked) [Compound 34]
15,< 100,COc1cc(-c2cn(C)c(=O)c3[nH]ncc23)cc(F)c1CN1CCN(C(=O)CN2CCC(c3ccc(N(C)C4CCC(=O)NC4=O)cc3)CC2)CC1 (centres unmarked) [Compound 35]
16,< 100,Cn1cc(-c2ccc(CN3CCN(C(=O)CN4CCC(c5ccc(NC6CCC(=O)NC6=O)cc5)CC4)CC3)c(OC(F)(F)F)c2)c2ccc(F)cc2c1=O (centres unmarked) [Compound 36]
17,< 100,"COc1cc(-c2cn(C)c(=O)c3[nH]ncc23)cc(OC)c1CN1CCN(CC(=O)N2CCC(c3ccc(NC4CCC(=O)NC4=O)cc3)CC2)CC1 (centres unmarked) [Compound 37, 3-[4-[1-[2-[4-[[2,6-dimethoxy-4-(6-methyl-7-oxo-1H-pyrazolo[3,4-c]pyridin-4-yl)phenyl]methyl]piperazin-1-yl]acetyl]-4-piperidyl]anilino]piperidine-2,6-dione]"
18,100 to 500,COc1cc(-c2cn(C)c(=O)c3[nH]ncc23)cc(OC)c1CNC1CN(CC(=O)N2CCC(c3ccc(NC4CCC(=O)NC4=O)cc3)CC2)C1 (centres unmarked) [Compound 38]
19,< 100,COc1cc(-c2cn(C)c(=O)c3[nH]ncc23)cc(OC)c1CNC1CCN(CC(=O)N2CCC(c3ccc(NC4CCC(=O)NC4=O)cc3)CC2)CC1 (centres unmarked) [Compound 39]

# Source: patent publication US11691972B2, “Compounds for targeted degradation of BRD9” (C4 Therapeutics, Inc., priority 2020, dated 2023)
